# Test results as given in US4179464A, “Preparation of N-(phosphonoacetyl)-L-aspartic acid” (priority 1978, dated 1979).
# “Also recorded” adds a separate entry of the source. Counter-ions that a name gives are not always drawn. Like-named read-outs stand apart in the source and are kept apart here.
# What was measured:
# [1] = solubility; type: physicochemical
# Description: (§1) The following determinations were made as to the physical properties of the disodium PALA. Except for the test for stability, these tests were carried out on material free of solvent contamination.
# [2] = hygroscopic character; type: physicochemical; conditions: for physical state after moisture uptake: atmospheric moisture, eventually
# Description: as §1
# Hygroscopic Character. Tetrasodium PALA absorbs atmospheric moisture 1.5 times faster than the disodium salt.
# [3] = tested on: pyrimidine nucleotide biosynthesis; conditions: Stark et al. (1974); cited from earlier work
# [4] = tested on: aspartate transcarbamylase; conditions: Stark et al., J. Biol. Chem., 246, 6599 (1971); cited from earlier work
# [5] = tested on: Lewis Lung tumor; conditions: NCI screening program, data through Aug. 31, 1976; cited from earlier work
# [6] = tested on: B16 tumor; conditions: NCI screening program, data through Aug. 31, 1976; cited from earlier work
# [7] = tested on: P388 tumor; conditions: NCI screening program, data through Aug. 31, 1976; cited from earlier work
# [8] = tested on: tumor systems; assay: preliminary in vivo screening of PALA esters; conditions: relative to tetrasodium PALA
# [9] = type: physicochemical
# Description: as §1
# pH. A 2% solution of the disodium salt in water has a pH of 4.08.
# [10] = stability on drying in vacuo at 140° (NMR, TLC); type: physicochemical; conditions: dried in vacuo at 140° for 15.5 hours, sample containing acetic acid and ethanol
# Description: as §1
# Stability. A sample of disodium PALA was dried in vacuo at 140° for 15.5 hours. […] This is believed to be an ester produced at the elevated temperature in the presence of ethanol and acetic acid.
# [11] = tested on: expected tumor systems; assay: activity of tetrasodium PALA samples in tumor systems; type: in vivo
# Text: In spite of the above mentioned problems involving the consistency of elemental analyses and the low hydrogen values, the tetrasodium PALA samples were characterized as highly pure materials by nmr, optical rotation (comparison with literature value), and thin layer chromatography (homogeneous in four different solvent systems).
smiles,measurement,setting,value
"O=C(CP(=O)(O)O)N[C@@H](CC(=O)OCc1ccccc1)C(=O)OCc1ccccc1 [IV, L-Aspartic acid, N-(phosphonoacetyl)-, dibenzyl ester]",water solubility (in words),[1],insoluble in water
same,hygroscopicity (in words),[2]; listed as dibenzyl PALA,hygroscopic
"O=C(O)C[C@H](NC(=O)CP(=O)(O)O)C(=O)O [N,N'-dibenzylethylenediamine salt]",solubility in ethanol,"[1]; ethanol, preliminary",soluble in ethanol
"O=C(O)C[C@H](NC(=O)CP(=O)(O)O)C(=O)O [PALA, N-(phosphonoacetyl)-L-aspartic acid]",water solubility (in words),[1]; water,high water solubility
same,inhibition of pyrimidine nucleotide biosynthesis in vitro,[3],inhibition of pyrimidine nucleotide biosynthesis in vitro
same,transition state analogue inhibitor of aspartate transcarbamylase,[4],transition state analogue inhibitor of aspartate transcarbamylase
same,activity against Lewis Lung tumor system,[5],active
same,activity against B16 tumor system,[6],active
same,activity against P388 tumor system,[7],active
"O=C(CP(=O)(O)O)N[C@@H](CC(=O)OCc1ccccc1)C(=O)OCc1ccccc1 [XI, L-Aspartic acid, N-(phosphonoacetyl)-, dibenzyl ester, complexed with cyclohexylamine]",fold less active than tetrasodium PALA,[8],approximately 100 fold
same,hygroscopicity (in words),[2],apparently less hygroscopic than (X)
O=C(CP(=O)(O)O)N[C@@H](CC(=O)OCc1ccccc1)C(=O)OCc1ccccc1 [X],fold less active than tetrasodium PALA,[8],approximately 100 fold
same,hygroscopicity (in words),[2],markedly hygroscopic
O=C(O)C[C@H](NC(=O)CP(=O)(O)O)C(=O)O [calcium salt of PALA],water solubility (in words),[1]; water,dissolves in water permitting ready formulation
same,rate of dissolution in water,"[1]; water, results tentative",dissolves relatively slowly
O=C(O)C[C@H](NC(=O)CP(=O)(O)O)C(=O)O [cyclohexylamine salt],hygroscopicity (in words),[2],completely nonhygroscopic
"O=C([O-])C[C@H](NC(=O)CP(=O)(O)O)C(=O)[O-].[Na+].[Na+] [disodium PALA, L-Aspartic acid, N-(phosphonoacetyl)-, disodium salt]",pH of aqueous solution,[9]; 2% solution in water,4.08
same,water solubility (in words),[1]; water,extremely water soluble
same,solubility,"[1]; water, solvent-free material",> 950 mg/mL
same,physical state after moisture uptake,[2],eventually take up enough moisture so as to lose their solid characteristics
same,hygroscopicity (in words),[2]; disodium salt,less hygroscopic than tetrasodium PALA
same,hygroscopicity (in words),"[2]; listed as Disodium PALA, disodium salt",less hygroscopic than the tetrasodium compound
same,structural integrity by NMR,[10],retained its structural integrity
same,change in thin layer chromatography,[10]; believed to be an ester,"formation of a new, faster-running spot"
"O=C(O)C[C@H](NC(=O)CP(=O)(O)O)C(=O)O [tetrasodium PALA, L-Aspartic acid, N-(phosphonoacetyl)-, tetrasodium salt]",pH when formulated in water,[9]; formulated in water,9.2
same,physiological acceptability of alkalinity in water,"[9]; formulated in water, pH 9.2",alkaline (pH 9.2) to a degree generally considered harmful physiologically
same,hygroscopicity (in words),[2],hygroscopic; also recorded: high degree of hygroscopicity
same,physical state after moisture uptake,[2],eventually take up enough moisture so as to lose their solid characteristics
same,rate of absorption of atmospheric moisture relative to the disodium salt,"[2]; tetrasodium versus disodium salt, solvent-free material",1.5 times faster
same,activity in the expected tumor systems,[11],active in the expected tumor systems
